Assay [1] concerns the target T1, Mineralocorticoid receptor (Homo sapiens, UniProt P08235).
T1 sequence (P08235 whole entry): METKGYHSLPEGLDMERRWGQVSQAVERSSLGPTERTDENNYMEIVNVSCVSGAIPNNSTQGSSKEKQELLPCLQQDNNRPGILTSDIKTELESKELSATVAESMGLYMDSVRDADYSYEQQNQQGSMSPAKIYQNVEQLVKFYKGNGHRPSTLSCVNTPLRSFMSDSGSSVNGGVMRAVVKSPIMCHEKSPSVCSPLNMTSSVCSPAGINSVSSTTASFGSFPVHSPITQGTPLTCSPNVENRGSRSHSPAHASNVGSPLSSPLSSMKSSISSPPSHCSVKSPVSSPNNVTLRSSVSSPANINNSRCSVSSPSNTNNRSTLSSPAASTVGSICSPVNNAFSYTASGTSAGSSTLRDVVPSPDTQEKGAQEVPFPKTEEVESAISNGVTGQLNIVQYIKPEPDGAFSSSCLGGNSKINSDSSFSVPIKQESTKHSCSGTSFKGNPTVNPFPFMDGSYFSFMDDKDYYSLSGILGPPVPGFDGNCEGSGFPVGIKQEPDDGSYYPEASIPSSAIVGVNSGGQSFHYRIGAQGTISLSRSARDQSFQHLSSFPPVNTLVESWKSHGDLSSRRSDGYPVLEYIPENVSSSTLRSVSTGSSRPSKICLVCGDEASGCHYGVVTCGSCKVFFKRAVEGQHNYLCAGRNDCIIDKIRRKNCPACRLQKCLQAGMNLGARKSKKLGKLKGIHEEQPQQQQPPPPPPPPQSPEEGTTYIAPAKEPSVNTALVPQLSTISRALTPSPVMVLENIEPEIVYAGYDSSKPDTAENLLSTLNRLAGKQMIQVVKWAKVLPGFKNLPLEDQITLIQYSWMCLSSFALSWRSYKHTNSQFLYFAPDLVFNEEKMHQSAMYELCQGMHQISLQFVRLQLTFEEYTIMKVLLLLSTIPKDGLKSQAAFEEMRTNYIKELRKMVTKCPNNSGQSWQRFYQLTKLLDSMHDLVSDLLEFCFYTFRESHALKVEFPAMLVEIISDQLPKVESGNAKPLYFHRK
Kind of assay: biochemical.
Description: Displacement of [3H]-aldosterone from recombinant human mineralocorticoid receptor expressed in baculovirus infected insect cells incubated overnight by liquid scintillation counting analysis

Assay [2] addresses T2, Glucocorticoid receptor (Rattus norvegicus, UniProt P06536).
T2 sequence (P06536 whole entry): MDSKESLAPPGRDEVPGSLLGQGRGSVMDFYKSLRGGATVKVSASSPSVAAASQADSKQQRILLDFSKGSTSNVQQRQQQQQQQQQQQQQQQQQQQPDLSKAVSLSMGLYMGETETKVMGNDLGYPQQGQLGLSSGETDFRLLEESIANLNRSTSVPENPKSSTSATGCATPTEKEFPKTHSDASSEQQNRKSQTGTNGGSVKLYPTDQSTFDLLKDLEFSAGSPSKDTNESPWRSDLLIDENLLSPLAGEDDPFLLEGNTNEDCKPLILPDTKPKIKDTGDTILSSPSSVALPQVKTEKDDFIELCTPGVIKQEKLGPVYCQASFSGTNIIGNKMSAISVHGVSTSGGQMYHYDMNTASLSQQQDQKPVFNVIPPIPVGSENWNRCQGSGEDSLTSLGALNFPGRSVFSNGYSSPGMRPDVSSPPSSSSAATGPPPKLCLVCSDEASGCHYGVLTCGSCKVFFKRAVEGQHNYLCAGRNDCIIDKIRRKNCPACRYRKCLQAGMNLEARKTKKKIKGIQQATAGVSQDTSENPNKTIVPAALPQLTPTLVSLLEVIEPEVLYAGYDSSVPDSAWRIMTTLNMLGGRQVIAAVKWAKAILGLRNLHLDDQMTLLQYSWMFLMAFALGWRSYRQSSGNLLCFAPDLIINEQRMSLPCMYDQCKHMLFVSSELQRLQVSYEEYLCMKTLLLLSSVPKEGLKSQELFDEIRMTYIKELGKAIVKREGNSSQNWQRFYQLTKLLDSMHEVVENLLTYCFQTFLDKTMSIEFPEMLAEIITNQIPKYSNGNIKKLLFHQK
Kind of assay: Displacement of [3H]-dexamethasone from rat glucocorticoid receptor incubated overnight by liquid scintillation counting analysis.

Assay [3] addresses T3, Mineralocorticoid receptor (Rattus norvegicus, UniProt P22199).
T3 sequence (P22199 whole entry): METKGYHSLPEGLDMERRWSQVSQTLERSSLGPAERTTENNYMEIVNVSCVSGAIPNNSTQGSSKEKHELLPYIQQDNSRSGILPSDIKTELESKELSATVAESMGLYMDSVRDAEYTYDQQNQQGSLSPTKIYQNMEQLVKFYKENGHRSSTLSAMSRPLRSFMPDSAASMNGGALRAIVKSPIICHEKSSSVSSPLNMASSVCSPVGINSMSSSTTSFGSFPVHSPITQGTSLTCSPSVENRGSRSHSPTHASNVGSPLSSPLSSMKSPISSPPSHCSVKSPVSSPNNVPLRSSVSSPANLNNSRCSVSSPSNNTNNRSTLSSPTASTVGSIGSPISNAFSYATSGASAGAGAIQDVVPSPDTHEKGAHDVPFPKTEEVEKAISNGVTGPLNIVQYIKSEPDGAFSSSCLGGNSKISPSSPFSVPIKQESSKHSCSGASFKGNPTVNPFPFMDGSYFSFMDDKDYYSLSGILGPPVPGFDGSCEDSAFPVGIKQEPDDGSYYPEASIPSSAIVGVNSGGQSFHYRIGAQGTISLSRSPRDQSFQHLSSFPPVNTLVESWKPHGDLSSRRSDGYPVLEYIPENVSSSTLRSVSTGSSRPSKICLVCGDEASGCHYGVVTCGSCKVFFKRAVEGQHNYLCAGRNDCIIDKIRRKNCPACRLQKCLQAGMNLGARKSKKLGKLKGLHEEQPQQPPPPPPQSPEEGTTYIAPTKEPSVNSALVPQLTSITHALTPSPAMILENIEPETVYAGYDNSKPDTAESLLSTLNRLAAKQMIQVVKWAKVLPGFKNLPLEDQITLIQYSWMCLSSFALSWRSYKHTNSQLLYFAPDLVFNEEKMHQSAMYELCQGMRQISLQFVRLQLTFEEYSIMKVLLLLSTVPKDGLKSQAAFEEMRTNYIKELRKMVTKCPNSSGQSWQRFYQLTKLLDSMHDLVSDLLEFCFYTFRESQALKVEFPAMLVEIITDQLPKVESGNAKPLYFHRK
Description: Displacement of [3H]-aldosterone from rat mineralocorticoid receptor incubated overnight by liquid scintillation counting analysis

Assay [4] deals with T4, Glucocorticoid receptor (Homo sapiens, UniProt P04150).
T4 sequence (P04150 whole entry): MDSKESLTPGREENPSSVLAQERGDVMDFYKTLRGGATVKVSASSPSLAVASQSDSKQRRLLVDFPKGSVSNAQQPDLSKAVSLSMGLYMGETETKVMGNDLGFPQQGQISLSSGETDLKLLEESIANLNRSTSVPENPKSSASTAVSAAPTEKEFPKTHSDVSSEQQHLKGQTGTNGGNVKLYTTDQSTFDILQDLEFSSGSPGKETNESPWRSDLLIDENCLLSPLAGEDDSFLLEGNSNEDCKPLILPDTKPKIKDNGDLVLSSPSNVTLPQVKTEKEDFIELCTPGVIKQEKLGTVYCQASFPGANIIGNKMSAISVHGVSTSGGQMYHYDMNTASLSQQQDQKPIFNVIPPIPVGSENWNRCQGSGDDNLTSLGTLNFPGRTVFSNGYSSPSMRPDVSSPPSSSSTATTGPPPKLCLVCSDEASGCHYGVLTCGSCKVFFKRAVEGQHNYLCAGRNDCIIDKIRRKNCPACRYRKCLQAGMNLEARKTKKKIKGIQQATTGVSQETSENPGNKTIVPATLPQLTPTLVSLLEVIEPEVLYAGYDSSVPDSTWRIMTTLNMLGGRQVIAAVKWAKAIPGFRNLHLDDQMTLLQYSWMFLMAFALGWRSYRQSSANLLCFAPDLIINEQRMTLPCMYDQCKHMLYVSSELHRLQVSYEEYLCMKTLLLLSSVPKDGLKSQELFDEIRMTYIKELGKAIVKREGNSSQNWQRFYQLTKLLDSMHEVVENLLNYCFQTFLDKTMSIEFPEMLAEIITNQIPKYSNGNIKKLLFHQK
In words: biochemical.
Description: Displacement of [3H]-dexamethasone from recombinant full length human glucocorticoid receptor expressed in baculovirus infected insect cells incubated overnight by liquid scintillation counting analysis

A further assay has as its system CHO-K1. Kind of assay: Antagonist activity at human mineralocorticoid receptor S810L mutant expressed in CHO-K1 cells assessed as inhibition of aldosterone-induced transcriptional activity at 300 nM incubated for 24 hrs in presence of aldosterone at 0.5 nM by reporter gene assay relative to control. The format is cell-based. Also noted: scale not given: the % may be the effect or the level left. The note with it: filed as antagonist.

For assay [5], the target named is T5, Mineralocorticoid receptor (Homo sapiens) (UniProt P08235).
T5 sequence (whole entry): T1 sequence (P08235 whole entry)
In words: Antagonist activity at human wild-type mineralocorticoid receptor expressed in CHO-K1 cells assessed as inhibition of aldosterone-induced transcriptional activity incubated for 24 hrs in presence of 1 nM aldosterone by Steady-Glo reagent based reporter gene assay relative to control. The format is cell-based. Also noted: scale not given: the % may be the effect or the level left. To be noted: filed as antagonist.

With `CS(=O)(=O)Nc1ccc2c(c1)OC1(CC1)C(=O)N2c1ccc(F)cc1`, the Ki is 0.808 µM in assay [1], greater than 100 µM at Glucocorticoid receptor [2] and 0.549 µM in assay [3].
With `CS(=O)(=O)Nc1ccc2c(c1)OC(c1ccccc1)C(=O)N2c1ccc(F)cc1` (centres undefined), the inhibition constant (Ki) in assay [1] was determined as 0.342 µM; on Glucocorticoid receptor [2] it was 55.2 µM; in assay [3] it was 0.25 µM.
`CS(=O)(=O)Nc1ccc2c(c1)OCC(=O)N2c1ccc(F)cc1`: the figures for the Ki (at Glucocorticoid receptor [2]; in assay [3]) were greater than 100 µM and 1.75 µM, respectively.
`CNS(=O)(=O)c1ccc(C(C)(C)c2ccccc2)cc1`: the Ki was 1.37 µM in assay [1], greater than 100 µM at Glucocorticoid receptor [2] and 4.31 µM in assay [3].
`CC1(C)CN(c2ccc(F)cc2)c2ccc(NS(C)(=O)=O)cc2O1`: the inhibition constant Ki at Glucocorticoid receptor [2] is 43.2 µM.
Turning to `CS(=O)(=O)Nc1ccc2c(c1)OC1(CCC1)C(=O)N2c1ccc(F)cc1`, the Ki in assay [1] was 0.152 µM; at Glucocorticoid receptor [2], greater than 100 µM; in assay [3], 0.626 µM.
For the molecule `CC(=O)c1ccc(N(Cc2ccccc2)c2ccc(NS(C)(=O)=O)cc2)cc1`, the results for the Ki (at Glucocorticoid receptor [2]; in assay [3]) were 25.4 µM and 5.67 µM, respectively.
For the molecule `CC(C)(c1ccccc1)c1ccc(NS(=O)(=O)C(F)(F)F)cc1`, the Ki (at Glucocorticoid receptor [2]; in assay [3]) was greater than 100 µM in each case.
Regarding `CS(=O)(=O)Nc1ccc(N(C(=O)c2ccccc2)c2ccc(F)cc2)cc1`, the Ki on Glucocorticoid receptor [2] turned out to be 41.5 µM.
With `CC1Oc2cc(NS(C)(=O)=O)ccc2N(c2ccc(F)cc2)C1=O` (centres undefined), the Ki in assay [1] was 0.16 µM; at Glucocorticoid receptor [2] it was 136 µM; in assay [3] it was 0.201 µM.
In the case of `CN(c1ccccc1)c1ccc(NS(C)(=O)=O)cc1`, the inhibition constant Ki amounted to 0.735 µM in assay [1], 47.2 µM on Glucocorticoid receptor [2] and 0.853 µM in assay [3].
Take `CN(C)S(=O)(=O)Nc1ccc(C(C)(C)c2ccccc2)cc1`: the Ki at Glucocorticoid receptor [2] is 29 µM; in assay [3] it was 6.88 µM.
`CS(=O)(=O)Nc1ccc(N(C(=O)c2ccccc2)c2ccccc2)cc1`: the inhibition constant (Ki) was 1.27 µM in assay [1], 22.2 µM at Glucocorticoid receptor [2] and 1.24 µM in assay [3].
For `CC(C)(c1ccccc1)c1cccc(NS(C)(=O)=O)c1`, the Ki was 19.6 µM on Glucocorticoid receptor [2] and 12 µM in assay [3].
In the case of `CCN(c1ccccc1)c1ccc(NS(C)(=O)=O)cc1`, the inhibitory constant (Ki) in assay [1] came out at 0.607 µM; on Glucocorticoid receptor [2], 45 µM; in assay [3] it was 1.56 µM.
At Glucocorticoid receptor [4], `CC(=O)S[C@@H]1CC2=CC(=O)CC[C@]2(C)[C@H]2CC[C@@]3(C)[C@@H](CC[C@@]34CCC(=O)O4)[C@H]12` [SPIRONOLACTONE] came in with an IC50 of 6.05 µM. In addition, the Activity with CHO-K1 was found to be 58.5%; in assay [5], 98.3%.
On to `CC(C)(c1ccccc1)c1ccc(NS(C)(=O)=O)cc1`, for which the Ki in assay [1] stood at 0.74 µM; at Glucocorticoid receptor [2], 40 µM; in assay [3] it was 1.96 µM.
`CC(C)(c1ccccc1)c1ccc(S(N)(=O)=O)cc1`: the Ki (on Glucocorticoid receptor [2]; in assay [3]) was greater than 100 µM each time.
Take `CC(=O)Nc1ccc(C(C)(C)c2ccccc2)cc1`: the Ki (on Glucocorticoid receptor [2]; in assay [3]) was greater than 100 µM throughout.
On to `CS(=O)(=O)Nc1ccc(Nc2ccccc2)cc1`, for which the Ki (on Glucocorticoid receptor [2]; in assay [3]) was greater than 100 µM in each case.
`CS(=O)(=O)Nc1ccc(N(Cc2ccccc2)c2ccccc2)cc1`: the Ki came to 0.147 µM in assay [1], 29.1 µM on Glucocorticoid receptor [2] and 0.357 µM in assay [3].
Consider `CCS(=O)(=O)Nc1ccc(C(C)(C)c2ccccc2)cc1`, for which the results for the Ki (in assay [1]; on Glucocorticoid receptor [2]; in assay [3]) were 1.92 µM, 37.9 µM and 3.77 µM, respectively.
